US7846917B2, “18-Methyl-19-norandrost-4-ene 17, 17-spiro ether (18-methyl-19-nor-20-spirox-4-en-3-one), and pharmaceutical products comprising the same” (Bayer Schering Pharma AG, priority 2006, dated 2010)

How the values were obtained:
progesterone receptor = target: T1, progesterone receptor (Oryctolagus cuniculus, UniProt P06186); test: progesterone receptor binding assay using cytosol from rabbit uterus homogenate; details: for PR [KF]: 3H-progesterone = 1; for PR [RBA]: 3H-progesterone = 100
T1 construct: cytosol from rabbit uterus homogenate; from tissue; host or cells: rabbit uterus (cytosol of homogenate)
T1 sequence (P06186 1-930): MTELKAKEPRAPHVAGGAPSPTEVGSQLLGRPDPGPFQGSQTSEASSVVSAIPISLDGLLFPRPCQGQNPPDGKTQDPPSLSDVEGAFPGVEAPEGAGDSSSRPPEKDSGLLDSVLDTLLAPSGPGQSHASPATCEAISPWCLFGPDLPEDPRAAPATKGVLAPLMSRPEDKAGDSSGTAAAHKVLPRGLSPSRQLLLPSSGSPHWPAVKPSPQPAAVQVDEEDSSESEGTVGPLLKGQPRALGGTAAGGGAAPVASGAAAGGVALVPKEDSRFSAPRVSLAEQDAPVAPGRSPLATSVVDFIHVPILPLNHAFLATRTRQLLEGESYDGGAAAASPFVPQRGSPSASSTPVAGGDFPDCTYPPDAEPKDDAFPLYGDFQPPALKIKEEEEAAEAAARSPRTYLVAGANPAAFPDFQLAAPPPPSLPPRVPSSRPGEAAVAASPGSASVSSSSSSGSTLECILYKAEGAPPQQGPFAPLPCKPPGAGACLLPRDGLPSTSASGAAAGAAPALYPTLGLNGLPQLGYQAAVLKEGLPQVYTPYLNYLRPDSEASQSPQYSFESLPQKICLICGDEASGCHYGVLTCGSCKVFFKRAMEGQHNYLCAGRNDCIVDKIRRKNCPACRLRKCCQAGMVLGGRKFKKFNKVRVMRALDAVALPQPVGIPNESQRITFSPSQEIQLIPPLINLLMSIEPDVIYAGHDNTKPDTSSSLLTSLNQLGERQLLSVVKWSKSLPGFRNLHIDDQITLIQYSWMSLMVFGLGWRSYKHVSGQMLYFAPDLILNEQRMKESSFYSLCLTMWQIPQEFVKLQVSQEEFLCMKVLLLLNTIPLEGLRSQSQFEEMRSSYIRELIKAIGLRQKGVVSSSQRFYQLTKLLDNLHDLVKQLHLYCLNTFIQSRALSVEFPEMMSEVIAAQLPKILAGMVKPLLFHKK
Source text: (§1) This object is achieved by the provision of the 18-methyl-15β,16β-methylene-19-nor-20-spirox-4-en-3-ones of the general formula I described herein.

[1] = target: T2, mineralocorticoid receptor (Rattus norvegicus, UniProt P22199); test: mineralocorticoid receptor binding, rat kidney homogenate; details: for MR [KF]: 3H-aldosterone = 1; for MR [RBA]: 3H-aldosterone = 100
T2 construct: mineralocorticoid receptor from rat kidney homogenate; from tissue; host or cells: rat kidney homogenate
T2 sequence (P22199 1-981): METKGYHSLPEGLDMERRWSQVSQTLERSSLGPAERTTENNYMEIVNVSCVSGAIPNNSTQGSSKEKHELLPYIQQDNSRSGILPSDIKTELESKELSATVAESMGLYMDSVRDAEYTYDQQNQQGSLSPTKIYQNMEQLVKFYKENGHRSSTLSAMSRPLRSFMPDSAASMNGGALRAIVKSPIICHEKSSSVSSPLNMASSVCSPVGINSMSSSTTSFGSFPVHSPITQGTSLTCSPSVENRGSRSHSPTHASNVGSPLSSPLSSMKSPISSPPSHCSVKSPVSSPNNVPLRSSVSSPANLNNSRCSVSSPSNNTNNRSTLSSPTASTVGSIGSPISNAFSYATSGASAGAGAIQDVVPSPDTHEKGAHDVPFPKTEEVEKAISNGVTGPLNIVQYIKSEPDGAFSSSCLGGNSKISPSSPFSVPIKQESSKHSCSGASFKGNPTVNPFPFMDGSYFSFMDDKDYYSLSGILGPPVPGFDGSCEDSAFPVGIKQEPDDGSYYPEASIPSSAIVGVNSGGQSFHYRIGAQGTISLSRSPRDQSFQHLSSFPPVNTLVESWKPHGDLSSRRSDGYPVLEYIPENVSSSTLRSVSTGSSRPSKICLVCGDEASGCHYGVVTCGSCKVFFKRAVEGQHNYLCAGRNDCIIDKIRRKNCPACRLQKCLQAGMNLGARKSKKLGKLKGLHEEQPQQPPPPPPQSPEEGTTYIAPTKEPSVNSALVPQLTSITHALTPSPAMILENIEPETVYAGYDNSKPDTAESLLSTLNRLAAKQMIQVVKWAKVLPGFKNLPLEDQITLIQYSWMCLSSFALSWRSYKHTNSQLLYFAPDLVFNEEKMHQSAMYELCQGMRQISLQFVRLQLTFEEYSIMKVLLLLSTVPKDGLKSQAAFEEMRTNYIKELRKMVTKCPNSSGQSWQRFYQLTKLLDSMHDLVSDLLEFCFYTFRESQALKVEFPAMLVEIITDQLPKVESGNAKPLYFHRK
Source text: as §1

## C[C@]12CCC(=O)C=C1[C@@H]1C[C@@H]1[C@H]1[C@@H]3[C@@H]4C[C@@H]4[C@@]4(CCC(=O)O4)[C@@]3(C)CC[C@@H]12 [DRSP, 6β,7β-15β,16β-dimethylene-3-oxo-17-pregn-4-ene-21,17β-carbolactone, reference compound]
Progesterone receptor
  PR [KF]: 2.5
  PR [RBA]: 40
[1]
  MR [KF]: 0.3
  MR [RBA]: 333

## CC[C@]12CCC3C4CCC(=O)C=C4C4CC4C3C1[C@@H]1C[C@@H]1[C@@]21CCCO1 (stereo partly drawn) [Example 2, 18-Methyl-6α,7α,15β,16β-dimethylene-19-nor-20-spirox-4-en-3-one]
Progesterone receptor
  PR [KF]: 2.34
  PR [RBA]: 43
[1]
  MR [KF]: 0.4
  MR [RBA]: 250

## CC[C@]12CC[C@H]3[C@H]([C@@H]1[C@@H]1C[C@@H]1[C@@]21CCCO1)[C@H](C)CC1=CC(=O)CC[C@@H]13 [Example 6, 7α,18-Dimethyl-15β,16β-methylene-19-nor-20-spirox-4-en-3-one]
Progesterone receptor
  PR [KF]: 1.13
  PR [RBA]: 88
[1]
  MR [KF]: 0.6
  MR [RBA]: 167

## CCC12CCC3C4CCC(=O)C=C4CC(C)C3C1C1CC1C21CCCO1 (stereo not drawn) [Example 7, 7β,18-Dimethyl-15β,16β-methylene-19-nor-20-spirox-4-en-3-one]
Progesterone receptor
  PR [KF]: 1.08
  PR [RBA]: 93
[1]
  MR [KF]: 0.5
  MR [RBA]: 200

## CCC1CC2=CC(=O)CCC2C2CCC3(CC)C(C4CC4C34CCCO4)C12 (stereo not drawn) [Example 9, 7β-Ethyl-18-methyl-15β,16β-methylene-19-nor-20-spirox-4-en-3-one]
Progesterone receptor
  PR [KF]: 4.295
  PR [RBA]: 23
[1]
  MR [KF]: 42
  MR [RBA]: 2

## CC[C@]12CC[C@H]3[C@H]([C@@H]1[C@@H]1C[C@@H]1[C@@]21CCCO1)[C@H](C1CC1)CC1=CC(=O)CC[C@@H]13 [Example 12, 7α-Cyclopropyl-18-methyl-15β,16β-methylene-19-nor-20-spirox-4-en-3-one]
Progesterone receptor
  PR [KF]: 2.355
  PR [RBA]: 42
[1]
  MR [KF]: 0.7
  MR [RBA]: 143

## CC[C@]12CC[C@H]3[C@@H](CCC4=C(C)C(=O)CC[C@@H]43)[C@@H]1[C@@H]1C[C@@H]1[C@@]21CCCO1 [Example 14, 4,18-Dimethyl-150,16β-methylene-19-nor-20-spirox-4-en-3-one]
Progesterone receptor
  PR [KF]: 3.245
  PR [RBA]: 31
[1]
  MR [KF]: 7.6
  MR [RBA]: 13

## CCC12CCC3C4CCC(=O)C(C)=C4C4CC4C3C1C1CC1C21CCCO1 (stereo not drawn) [Example 17, 4,18-Dimethyl-6β,7β,15β,16β-dimethylene-19-nor-20-spirox-4-en-3-one]
Progesterone receptor
  PR [KF]: 3.45
  PR [RBA]: 29
[1]
  MR [KF]: 7.8
  MR [RBA]: 13

## CC[C@]12CC[C@H]3[C@@H]([C@H]4C[C@H]4C4=C(Cl)C(=O)CC[C@@H]43)[C@@H]1[C@@H]1C[C@@H]1[C@@]21CCCO1 [Example 18, 4-Chloro-18-methyl-6β,7β,15β,16β-dimethylene-19-nor-20-spirox-4-en-3-one]
Progesterone receptor
  PR [KF]: 3.01
  PR [RBA]: 33
[1]
  MR [KF]: 88
  MR [RBA]: 1
